Results reported in patent US20230133169A1, “EGFR INHIBITOR, COMPOSITION, AND METHOD FOR PREPARATION THEREOF” (BETTA PHARMACEUTICALS CO., LTD, priority 2019, published 2023).

Columns and labels:
[1] = target: Ba/F3-Δ19del/T790M/C797S cells (Homo sapiens, UniProt P00533, T790M/C797S, cells depend on it, form not given); experiment: Ba/F3-Δ19del/T790M/C797S cell proliferation assay (CellTiter Glo); assay type: cell-based; conditions: 72 hours, CTG luminescence, read-out: BaF3 Δ19del/T790M/C797S IC50
Sequence of Ba/F3-Δ19del/T790M/C797S cells (P00533 with tags, fused parts or gaps DEL746-750/T790M/C797S, form open): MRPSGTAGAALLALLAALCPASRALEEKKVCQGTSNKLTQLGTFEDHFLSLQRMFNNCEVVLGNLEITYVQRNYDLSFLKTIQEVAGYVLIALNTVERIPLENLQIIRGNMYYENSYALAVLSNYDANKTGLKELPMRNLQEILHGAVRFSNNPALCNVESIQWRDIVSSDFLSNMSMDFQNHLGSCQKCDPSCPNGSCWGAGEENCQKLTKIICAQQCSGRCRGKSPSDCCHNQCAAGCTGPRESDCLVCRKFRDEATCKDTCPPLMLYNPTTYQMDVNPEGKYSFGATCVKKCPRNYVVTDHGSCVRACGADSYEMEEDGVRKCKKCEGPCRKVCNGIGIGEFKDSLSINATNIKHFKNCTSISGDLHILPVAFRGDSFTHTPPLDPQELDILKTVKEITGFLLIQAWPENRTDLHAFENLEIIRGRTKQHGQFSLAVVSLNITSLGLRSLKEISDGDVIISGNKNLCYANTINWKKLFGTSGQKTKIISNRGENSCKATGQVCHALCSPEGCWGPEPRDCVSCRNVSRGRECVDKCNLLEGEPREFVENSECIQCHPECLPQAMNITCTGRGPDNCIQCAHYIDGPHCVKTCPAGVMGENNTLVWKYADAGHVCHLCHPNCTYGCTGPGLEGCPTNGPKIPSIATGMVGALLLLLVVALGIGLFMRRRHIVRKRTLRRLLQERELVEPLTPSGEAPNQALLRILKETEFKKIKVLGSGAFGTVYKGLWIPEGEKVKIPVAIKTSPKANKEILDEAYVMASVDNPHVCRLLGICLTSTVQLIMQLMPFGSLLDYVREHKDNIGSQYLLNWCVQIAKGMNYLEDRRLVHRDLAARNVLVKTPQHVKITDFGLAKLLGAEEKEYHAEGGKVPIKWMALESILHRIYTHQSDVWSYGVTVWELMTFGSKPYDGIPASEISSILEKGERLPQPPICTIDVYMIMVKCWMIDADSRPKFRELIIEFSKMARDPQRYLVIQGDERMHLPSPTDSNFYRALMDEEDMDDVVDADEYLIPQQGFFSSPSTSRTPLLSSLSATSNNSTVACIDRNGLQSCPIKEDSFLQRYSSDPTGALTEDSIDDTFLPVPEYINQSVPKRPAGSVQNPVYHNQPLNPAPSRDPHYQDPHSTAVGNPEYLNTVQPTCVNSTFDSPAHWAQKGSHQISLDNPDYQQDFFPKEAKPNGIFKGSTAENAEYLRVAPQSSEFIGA
Procedure: (§1) RPMI 1640, 10% FBS and 1% PS; DMEM, 10% FBS and 1% PS
(§2) a) The medium was preheated in a 37° C. water bath in advance.
(§3) b) Remove the cryogenic vials from the liquid nitrogen tank, quickly put it into a 37° C. water bath, and completely melt it in 1 min.
(§4) c) Transfer the cell suspension to a 15 mL centrifuge tube containing 8 mL of medium, and centrifuge at 1000 rpm for 5 min.
(§5) d) Discard the supernatant, resuspend the cells in 1 mL of culture medium, transfer it to a 75 cm^2 flask containing 15 mL of culture medium, and culture the cells in a incubator with 5% CO2 at 37° C.
(§6) b) Collect the cells in a 15 mL centrifuge tube and centrifuge at 1000 rpm for 5 min. Discard the supernatant, count to make the cell density at 1×10^4 cells/mL, and then place it in a incubator with 5% CO2 at 37° C.
(§7) a) Dilute the test compound (20 mM stock solution) to 10 mM with 100% DMSO as the starting concentration, and then serially dilute 3 times with a “9+0” concentration in 96-well dilution plate (Cat #P-05525, Labcyte);
(§8) b) Dilute compound solution thereof to 1:100 in medium to prepare 10-fold working solution.
(§9) a) Centrifuge the growth cells in logarithmic phase at 1000 rpm for 5 minutes, resuspend the cells in culture medium, and then count the cells;
(§10) b) Inoculate the cells into a 96-well cell culture plate with a density of 2000 cells/well;
(§11) a) 15 μl of compounds prepared at step 2 were added to cell plate, the final concentrations were […], 370.4, 123.5, 41.2, 13.7, 4.6, 1.5 and 0 nM, and the final concentration of DMSO was 0.1%. The blank control well was a culture medium (0.1% DMSO);
(§12) b) Incubate cells in an incubator for another 72 hours;
(§13) a) Take out the 96-well cell culture plate and add 50 μl of CTG reagent (CellTiter Glo kit, promega, Cat#G7573);
(§14) b) Shake the plate for 2 minutes and let cool at room temperature for 10 minutes;
(§15) c) Read luminous signal value with PerkinElmer reader.
(§16) The data were analyzed by GraphPad Prism 6.0 software to obtain the fitting curve of compound activity.
(§17) Fitting compound IC50 from nonlinear regression equation:
(§18) Y=Min+(Max−Min)/(1+10^((Log IC50−X)*slope));
(§19) X: Logarithm of compound concentration; Y: luminous signal value.

EGFR Δ19del/T790M/C797S = EGFR Δ19del/T790M/C797S (Homo sapiens, UniProt P00533, T790M/C797S, form not given); experiment: EGFR Δ19del/T790M/C797S kinase test (mobility variation analysis, Caliper EZ Reader); assay type: biochemical; conditions: kinase inhibition, top concentration 300 nM
Sequence of EGFR Δ19del/T790M/C797S (P00533 with tags, fused parts or gaps DEL746-750/T790M/C797S, form open): as above
Procedure: Mobility variation analysis was performed to determine the affinity of the compound for EGFRΔ19del/T790M/C797S. The enzymatic reaction scheme is as follows:
1. Prepare 1*kinase buffer as follows.
2. Prepare compound concentration gradient: The test compound was tested at concentration of 300 nM, diluted with 100% DMSO solution in a 96-well plate to 100-fold final concentration, and then diluted to 3-fold concentration with Precision.10. Compound at each concentration was further diluted to 5-fold final concentration of intermediate dilution.
3. Add 5 μL of each prepared intermediate dilution compounds to the compound wells of 384-well plate respectively, and test the repeated wells of each concentration; add 5 μL of 5% DMSO into the negative control well and the positive control well respectively.
4. Prepare 2.5-fold final concentration of kinase solution with 1×Kinase buffer.
5. Add 10 μL of 2.5-fold final concentration of kinase solution to the compound well and the positive control well; add 10 μL of 1×Kinase buffer to the negative control well.
6. Centrifuge at 1000 rpm for 30 s, shake the reaction plate for well mixing, and then incubate at room temperature for 10 minutes.
7. Prepare a mixture of ATP and Kinase substrate (5-FAM-EEPLYWSFPAKKK-CONH2) at 2.5-fold final concentration with 1×Kinase buffer.
8. Add 10 μL mixture of ATP and substrate at 2.5-fold final concentration to start reaction.
9. Centrifuge the 384-well plate at 1000 rpm for 30 s, shake it well and then incubate it at room temperature for corresponding time.
10. Add 30 μL of stop detection solution to stop the kinase reaction, centrifuge at 1000 rpm for 30 s, and shake it well.
11. Read conversion rate with Caliper EZ Reader.
Convert the conversion rate to inhibition rate:
inhibition %=(max−conversion % sample)/(max−min)*100.
“max”: Mean value of negative control wells; “min”: Mean value of positive control wells; conversion % sample: Sample conversion reading.
GraphPad Prism 5 was used for % inhibition curve fitting to obtain the IC50 value.
The calculation formula: Y=inhibition %_min+(inhibition %_max−inhibition %_min)/(1+(IC50/X)^slope). wherein, Y is inhibition %; X is concentration of compound to be tested.

[2] = Pharmacokinetic experiment in rats, oral administration; assay type: in vivo; conditions: Sprague-Dawley (SD), rat, 5 mg/kg, male SD rats, 5 mpk, plasma
Procedure: Test 3 Pharmacokinetic Experiment
Male SD rats (3 rats in each group) were administered orally, and fasted overnight from at least 12 hours before administration to 4 hours after administration before the experiment. Blood was taken from the orbital vein. The time points of blood collection for oral administration were: 15 min, 30 min, 1 hr, 2 hr, 4 hr, 7 hr and 24 hr, the dosage of administration was 5 mpk, and the blood collection volume was 300 μL. After anticoagulant treatment with 2.0% EDTA, the blood was centrifuged at 4000 rpm for 5 min, and then about 100 μL was taken and placed for testing at −20° C. Plasma samples were analyzed by liquid chromatography tandem mass spectrometry (LC-MS/MS). The plasma concentration-time data of individual animals were analyzed by the non-compartment model of WinNonlin (V4.1, Pharsight) software, and the pharmacokinetic parameters of the compounds tested were calculated.

A431 wild-type cell line = experiment: A431 wild-type cell proliferation assay (CellTiter Glo); assay type: cell-based; conditions: Homo sapiens, A-431, 72 hours, CTG luminescence
Procedure: as §1, §2, §3, §4, §5, §6, §7, §8, §9, §10, §11, §12, §13, §14, §15, §16, §17, §18, §19

| SMILES | GI50 [1] | IC50 (EGFR Δ19del/T790M/C797S) | AUC(0-t) [2] | Cmax [2] | half-life ([2]; read-out: t½ (converted)) | IC50 (A431 wild-type cell line) |
| --- | --- | --- | --- | --- | --- | --- |
| CCc1cc(Nc2ncc(Br)c(Nc3ccc(C4CC4)cc3P(C)(C)=O)n2)c(OC)cc1N1CCC(N2CCN(C)CC2)CC1 [Compound 1, (2-((5-Bromo-2-((5-ethyl-2-methoxy-4-(4-(4-methylpiperazin-1-yl)piperidin-1-yl)phenyl)amino)pyrimidin-4-yl)amino)-5-cyclopropylphenyl)dimethylphosphine oxide] | 1.2 nM | 0.3 nM | 32900 ng·h/mL | 2100 ng/mL | 9.1 h | 682 nM |
| CCn1cc(-c2cc(Nc3ncc(Br)c(Nc4ccc(C5CC5)cc4P(C)(C)=O)n3)c(OC)cc2N2CCC(N3CCN(C)CC3)CC2)cn1 [Compound 2] | 7.2 nM | 0.4 nM |  |  |  | 268 nM |
| CCn1cc(-c2cc(Nc3ncc(OC)c(Nc4ccc(C5CC5)cc4P(C)(C)=O)n3)c(OC)cc2N2CCC(N3CCN(C)CC3)CC2)cn1 [Compound 3, (5-Cyclopropyl-2-((2-((5-(1-ethyl-1H-pyrazol-4-yl)-2-methoxy-4-(4-(4-methylpiperazin-1-yl)piperidin-1-yl)phenyl)amino)-5-methoxypyrimidin-4-yl)amino)phenyl)dimethylphosphine oxide] | 55.4 nM | 0.4 nM |  |  |  | 830 nM |
| COc1cc(N2CCC(N3CCN(C)CC3)CC2)ccc1Nc1ncc(Cl)c(Nc2ccc(C3CC3)cc2P(C)(C)=O)n1 [Compound 4] |  | 1.2 nM |  |  |  |  |
| CCc1cc(Nc2ncc(OC)c(Nc3ccc(C4CC4)cc3P(C)(C)=O)n2)c(OC)cc1N1CCC(N2CCN(C)CC2)CC1 [Compound 5] | 302 nM | 1.6 nM |  |  |  |  |
| CCc1cc(Nc2ncc(Br)c(Nc3ccc(C4CCOCC4)cc3P(C)(C)=O)n2)c(OC)cc1N1CCC(N2CCN(C)CC2)CC1 [Compound 6, (2-((5-Bromo-2-((5-ethyl-2-methoxy-4-(4-(4-methylpiperazin-1-yl)piperidin-1-yl)phenyl)amino)pyrimidin-4-yl)amino)-5-(tetrahydro-2H-pyran-4-yl)phenyl)dimethylphosphine oxide] | 15.6 nM | 0.7 nM |  |  |  | 674 nM |
| CCc1cc(Nc2ncc(Cl)c(Nc3ccc(C4CCCC4)cc3P(C)(C)=O)n2)c(OC)cc1N1CCC(N2CCN(C)CC2)CC1 [Compound 7, (2-((5-Chloro-2-((5-ethyl-2-methoxy-4-(4-(4-methylpiperazin-1-yl)piperidin-1-yl)phenyl)amino)pyrimidin-4-yl)amino)-5-cyclopentylphenyl)dimethylphosphine oxide] | 38.3 nM | 1.1 nM |  |  |  | 1400 nM |
| CCc1cc(Nc2ncc(Br)c(Nc3ccc(N4CCOCC4)cc3P(C)(C)=O)n2)c(OC)cc1N1CCC(N2CCN(C)CC2)CC1 [Compound 8] | 30.4 nM | 0.3 nM |  |  |  | 886 nM |
| COc1cc(N2CCC(N3CCN(C)CC3)CC2)c(-c2ccn(C)c2)cc1Nc1ncc(Br)c(Nc2ccc(C3CC3)cc2P(C)(C)=O)n1 [Compound 9, (2-((5-Bromo-2-((2-methoxy-5-(1-methyl-1H-pyrrol-3-yl)-4-(4-(4-methylpiperazine-1-yl)piperidin-1-yl)phenyl)amino)pyrimidin-4-yl)-amino)-5-cyclopropylphenyl)dimethylphosphine oxide] | 5.2 nM | 0.3 nM |  |  |  | 604 nM |
| COc1cc(N2CCC(N3CCN(C)CC3)CC2)c(C)cc1Nc1ncc(Br)c(Nc2ccc(C3CC3)cc2P(C)(C)=O)n1 [Compound 10, (2-((5-Bromo-2-((2-methoxy-5-methyl-4-(4-(4-methylpiperazin-1-yl)piperidin-1-yl)phenyl)Amino)pyrimidin-4-yl)amino)-5-cyclopropylphenyl)dimethylphosphine oxide] | 9.7 nM | 0.3 nM |  |  |  | 543 nM |
| COc1cc(N2CCC(N3CCN(C)CC3)CC2)ccc1Nc1ncc(Cl)c(Nc2ccc(C)cc2P(C)(C)=O)n1 [Control example 1, reference compound] | 49.9 nM | 2.7 nM |  |  |  |  |
